Assay results reported in patent publication US8791266B2, “Thyroid hormone β receptor agonist” (Mitsubishi Tanabe Pharma Corporation, priority 2009, dated 2014).

Key:
[1] = biological target: T1, Human Thyroid Hormone Receptor α1 (TRα1) (Homo sapiens, UniProt P10827); assay: Transcription activation test of human thyroid hormone receptor α1 (luciferase reporter in 293T cells); format: cell-based; settings: ratio TRα/TRβ of the transcription activation EC50 values
T1 construct: expressed in transfected cells; host or cells: 293T cells
T1 sequence (P10827 1-410 isoform P10827-2): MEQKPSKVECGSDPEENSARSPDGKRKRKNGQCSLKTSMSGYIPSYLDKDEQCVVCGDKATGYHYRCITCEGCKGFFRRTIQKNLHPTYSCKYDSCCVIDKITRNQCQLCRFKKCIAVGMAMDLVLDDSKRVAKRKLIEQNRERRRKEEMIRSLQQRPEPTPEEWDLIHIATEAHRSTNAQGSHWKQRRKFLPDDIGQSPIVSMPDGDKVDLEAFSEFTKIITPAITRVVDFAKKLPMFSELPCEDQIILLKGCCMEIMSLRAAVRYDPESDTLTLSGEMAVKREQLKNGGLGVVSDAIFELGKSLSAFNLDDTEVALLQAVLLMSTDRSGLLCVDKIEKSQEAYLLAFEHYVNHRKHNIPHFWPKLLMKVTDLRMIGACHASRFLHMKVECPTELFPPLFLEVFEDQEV
Description: (§1) Transcription Activation Test of Human Thyroid Hormone Receptors α1 (TRα1) and β1 (TRβ1)
(§2) pcDNA3.1 vector (manufactured by Invitrogen) that expresses TRα1 or β1 cloned from human liver-derived cells, and firefly luciferase expression vector pDR4-LuC (manufactured by Stratagene) having a thyroid hormone response sequence to be a reporter were transfected into 293T cells cultured in Dulbecco's modified Eagle medium (DMEM) containing 10% of activated carbon/dextran-treated fetal bovine serum (FBS) by using Lipofectamine2000 (manufactured by Invitrogen). After 16 hr, the cells were plated again in a 96 well plate, and the medium was exchanged with DMEM containing 0.1% activated carbon/dextran-treated FBS. After 3 more hr, a compound diluted with dimethyl sulfoxide solution was added, and the luciferase activity after 24 hr was measured.
(§3) As a positive control, 3,3′,5-triiodo-L-thyronine (T3), which is a biological ligand, was used. The transcription activation action of the compound on TRα1 and TRβ1 was shown by each EC50 value and the maximum luciferase activity value relative to the maximum luciferase activity value of T3 as 100.

[2] = biological target: T2, Human Thyroid Hormone Receptor β1 (TRβ1) (Homo sapiens, UniProt P10828); assay: Transcription activation test of human thyroid hormone receptor β1 (luciferase reporter in 293T cells); format: cell-based; settings: EC50 of transcription activation on TRβ1, 293T cells, luciferase activity after 24 hr; read-out: TRβ
T2 construct: expressed in transfected cells; host or cells: 293T cells
T2 sequence (P10828 1-461): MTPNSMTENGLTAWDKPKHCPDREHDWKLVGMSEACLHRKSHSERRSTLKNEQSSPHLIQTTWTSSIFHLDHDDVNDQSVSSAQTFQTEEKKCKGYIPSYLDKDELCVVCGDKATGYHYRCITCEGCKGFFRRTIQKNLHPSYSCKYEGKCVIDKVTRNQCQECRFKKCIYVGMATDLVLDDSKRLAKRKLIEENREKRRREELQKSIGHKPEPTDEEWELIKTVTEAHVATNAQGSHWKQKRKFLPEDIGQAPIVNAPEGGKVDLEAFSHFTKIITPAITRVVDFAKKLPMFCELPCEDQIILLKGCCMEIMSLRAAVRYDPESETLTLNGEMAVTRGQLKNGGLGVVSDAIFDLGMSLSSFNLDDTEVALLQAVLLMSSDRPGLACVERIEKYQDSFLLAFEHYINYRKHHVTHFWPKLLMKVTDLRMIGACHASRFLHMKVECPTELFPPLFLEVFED
Description: as §1, §2, §3

SMILES	selectivity (TRα/TRβ) [1]	EC50 [2]
Cc1cc(-n2nc(C#N)c(=O)[nH]c2=O)cc(C)c1Cc1ccc(O)c(-c2ccccc2)n1 [Example 216, 2-{4-[(5-hydroxy-6-phenylpyridin-2-yl)methyl]-3,5-dimethylphenyl}-3,5-dioxo-2,3,4,5-tetrahydro-1,2,4-triazine-6-carbonitrile]	A (5<(TRα/TRβ))	4 nM
Cc1cc(OCC(=O)O)c2c(c1Cc1ccc(O)c(C3CCCCC3)n1)CCC2 [Example 152, ({7-[(6-cyclohexyl-5-hydroxypyridin-2-yl)methyl]-6-methyl-2,3-dihydro-1H-inden-4-yl}oxy)acetic acid]	B (2<(TRα/TRβ)<5)	5 nM
Cc1cc(OCC(=O)O)c(C)c(C)c1Cc1ccc(O)c(C2CCCCCC2)n1 [Example 92, {4-[(6-cycloheptyl-5-hydroxypyridin-2-yl)methyl]-2,3,5-trimethylphenoxy}acetic acid]	A (5<(TRα/TRβ))	1 nM
Cc1cc(OCC(=O)O)cc(C)c1Cc1ccc(O)c(-c2ccc3ccccc3c2)n1 [Example 3, (4-{[5-hydroxy-6-(2-naphthyl)pyridin-2-yl]methyl}-3,5-dimethylphenoxy)acetic acid]	A (5<(TRα/TRβ))	20 nM
Cc1cc(OCc2noc(=O)[nH]2)c2c(c1Cc1ccc(O)c(C3CCCCC3)n1)CCO2 [Example 117, 3-[({4-[(6-cyclohexyl-5-hydroxypyridin-2-yl)methyl]-5-methyl-2,3-dihydro-1-benzofuran-7-yl}oxy)methyl]-1,2,4-oxadiazol-5(4H)-one]	B (2<(TRα/TRβ)<5)	2 nM
Cc1cc(C(=O)NCC(=O)O)cc(C)c1Cc1ccc(O)c(C2CCCCC2)n1 [Example 64, N-{4-[(6-cyclohexyl-5-hydroxypyridin-2-yl)methyl]-3,5-dimethylbenzoyl}glycine]	B (2<(TRα/TRβ)<5)	80 nM
Cc1cc(NCC(=O)O)c(C)c(C)c1Cc1ccc(O)c(C2CCCCC2)n1 [Example 62, N-{4-[(6-cyclohexyl-5-hydroxypyridin-2-yl)methyl]-2,3,5-trimethylphenyl}glycine]	B (2<(TRα/TRβ)<5)	4 nM
Cc1cc(OC2(C(=O)O)CC2)cc(C)c1Cc1ccc(O)c(C2CCCCC2)n1 [Example 18, 1-{4-[(6-cyclohexyl-5-hydroxypyridin-2-yl)methyl]-3,5-dimethylphenoxy}cyclopropanecarboxylic acid]	C (2>(TRα/TRβ))	2000 nM
Cc1cc(OCc2noc(=O)[nH]2)c(F)c(C)c1Cc1ccc(O)c(C(C)C)n1 [Example 37, 3-({2-fluoro^-4-[(5-hydroxy-6-isopropylpyridin-2-yl)methyl]-3,5-dimethylphenoxy}methyl)-1,2,4-oxadiazol-5(4H)-one]	B (2<(TRα/TRβ)<5)	0.1 nM
Cc1cc(OCc2noc(=O)[nH]2)c(F)c(C)c1Cc1ccc(O)c(N2CCCCC2)n1 [Example 118, 3-({2-fluoro-4-[(5-hydroxy-6-piperidin-1-ylpyridin-2-yl)methyl]-3,5-dimethylphenoxy}methyl)-1,2,4-oxadiazol-5(4H)-one]	B (2<(TRα/TRβ)<5)	20 nM
Cc1cc(OCc2noc(=O)[nH]2)cc(C)c1Cc1ccc(O)c(-c2ccc3ccccc3c2)n1 [Example 29, 3-[(4-{[5-hydroxy-6-(2-naphthyl)pyridin-2-yl]methyl}-3,5-dimethylphenoxy)methyl]-1,2,4-oxadiazol-5(4H)-one]	A (5<(TRα/TRβ))	2 nM
CCc1cc(OCC(=O)O)c(C)c(C)c1Cc1ccc(O)c(-c2cccc(F)c2)n1 [Example 269, (5-ethyl-4-{[6-(3-fluorophenyl)-5-hydroxypyridin-2-yl]methyl}-2,3-dimethylphenoxy)acetic acid]	A (5<(TRα/TRβ))	0.7 nM
Cc1cc(OCc2noc(=O)[nH]2)c(C)c(C)c1Cc1ccc(O)c(C2CCCC2)n1 [Example 32, 3-({4-[(6-cyclopentyl-5-hydroxypyridin-2-yl)methyl]-2,3,5-trimethylphenoxy}methyl)-1,2,4-oxadiazol-5(4H)-one]	B (2<(TRα/TRβ)<5)	0.4 nM
Cc1cc(OCC(=O)O)c(C)c(C)c1Cc1ccc(O)c(C2CCCCC2)n1 [Example 7, {4-[(6-cyclohexyl-5-hydroxypyridin-2-yl)methyl]-2,3,5-trimethylphenoxy}acetic acid]	A (5<(TRα/TRβ))	1 nM
Cc1cc(OCc2noc(=O)[nH]2)c(F)c(C)c1Cc1ccc(O)c(-c2ccc(F)c(F)c2F)n1 [Example 191, 3-{2-fluoro-4-[5-hydroxy-6-(2,3,4-trifluoro-phenyl)-pyridin-2-ylmethyl]-3,5-dimethyl-phenoxymethyl}-1,2,4-oxadiazol-5(4H)-one]	A (5<(TRα/TRβ))	6 nM
Cc1cc(OCC(=O)O)c(C)c(C)c1Cc1nc(C2CCCCC2)c(O)cc1F [Example 73, {4-[(6-cyclohexyl-3-fluoro-5-hydroxypyridin-2-yl)methyl]-2,3,5-trimethylphenoxy}acetic acid]	A (5<(TRα/TRβ))	0.2 nM
Cc1nc(OCC(=O)O)c(C)c(C)c1Cc1ccc(O)c(C2CCCCC2)n1 [Example 45, ({5-[(6-cyclohexyl-5-hydroxypyridin-2-yl)methyl]-3,4,6-trimethylpyridin-2-yl}oxy)acetic acid]	A (5<(TRα/TRβ))	5 nM
Cc1cc(OCC(=O)O)c(C#N)c(C)c1Cc1ccc(O)c(C2CCCCC2)n1 [Example 44, {2-cyano-4-[(6-cyclohexyl-5-hydroxypyridin-2-yl)methyl]-3,5-dimethylphenoxy}acetic acid]	B (2<(TRα/TRβ)<5)	200 nM
Cc1cc(OCc2noc(=O)[nH]2)cc(C)c1Cc1ccc(O)c(C2CCCCC2)n1 [Example 28, 3-({4-[(6-cyclohexyl-5-hydroxypyridin-2-yl)methyl]-3,5-dimethylphenoxy}methyl)-1,2,4-oxadiazol-5(4H)-one]	C (2>(TRα/TRβ))	0.2 nM
Cc1cc(OCC(=O)O)c(C)c(C)c1Cc1ccc(O)c(C(C)C)n1 [Example 4, {4-[(5-hydroxy-6-isopropylpyridin-2-yl)methyl]-2,3,5-trimethylphenoxy}acetic acid]	B (2<(TRα/TRβ)<5)	0.5 nM
Cc1cc(OCC(=O)O)c(C)c(C)c1Cc1ccc(O)c(C2CCCO2)n1 (stereo not shown) [Example 6, (4-{[5-hydroxy-6-(tetrahydrofuran-2-yl)pyridin-2-yl]methyl}-2,3,5-trimethylphenoxy)acetic acid]	B (2<(TRα/TRβ)<5)	50 nM
Cc1cc(OCC(=O)O)c(Br)c(C)c1Cc1ccc(O)c(C2CCCCC2)n1 [Example 13, {2-bromo-4-[(6-cyclohexyl-5-hydroxypyridin-2-yl)methyl]-3,5-dimethylphenoxy}acetic acid]	A (5<(TRα/TRβ))	0.3 nM
Cc1cc(-c2cc(O)no2)c(C)c(C)c1Cc1ccc(O)c(C(C)C)n1 [Example 81, 6-[4-(3-hydroxyisoxazol-5-yl)-2,3,6-trimethylbenzyl]-2-isopropylpyridin-3-ol]	B (2<(TRα/TRβ)<5)	0.1 nM
